Results from US9320743B2, “Use of 5α-androstane-3β,5,6β-triol in preparation of neuroprotective drugs” (GUANGZHOU CELLPROTEK PHARMACEUTICAL LTD., priority 2010, dated 2016).

Legend:
Type in all cases: cell-based, rat
[1] = test system: cerebellar granule neurons; experiment: Glutamate-induced excitotoxicity of cerebellar granule neurons; conditions: 200 μM glutamate, 24 hours
Protocol: Cerebella with meninges and blood vessels removed were obtained from 7-8 days old rats weighted 15-20 g. 0.05 g/L DNase I was used to pipette the cell to single cell suspension following 0.25 g/L trypsin digestion. The suspension was then centrifuged to collect precipitation and resuspended with BME medium containing 10% (v/v) FBS and 25 mM KCl. The cells were then seeded on dishes pre-coated with poly-lysine. 24 hours following the seeding, 10 μM Ara-C was added to inhibit growth and proliferation of non-neuron cells, such that the cerebellar granule neurons have purity not less than 95%. Glucose was added during culture to provide supplementary energy for cellular metabolism. Experiments were carried out at 8 DIV.
(§1) The cerebellar granule neurons cultured for 8 days were divided into four groups: control group, glutamate group, MK801+glutamate group, and YC-6+glutamate group. The control group received no treatment. The glutamate group was treated with 200 μM glutamate. The MK801 group and the YC-6 group were pre-treated with MK801 (10 μM) and YC-6 with different concentrations, respectively, followed by incubation at 37° C. for 30 minutes, then glutamate was added. After 24 hours, phase contrast microscope was used to observe neuronal morphologies. The cells were stained by FDA and observed under inverted fluorescent microscope for cell counting to calculate survival rate of neurons. The activity of lactate dehydrogenase (LDH) was also determined for each group. Survival Rate=Number of live cells for each group/Number of live cells in the control group*100%

[2] = test system: spinal motor neurons; experiment: Glutamate-induced excitotoxicity of spinal motor neurons; conditions: 24 hours, pre-treated 30 minutes, MK801 10 μM, YC-6 different concentrations
Protocol: Spinal cord was obtained from 15-day pregnant SD rats. The cristae membrane and blood film were removed. The spinal cord tissues of fetal rats is digested with 0.125% trypsin and then centrifuged to collect intermediate layer enriched with motor neurons. Cell debris were removed by centrifugation and cells were adhered by differential velocity adherent technique for 1 h. Suspending spinal motor neurons with slower adhering velocity were collected and seeded. 24 hours following the seeding, Ara-C was added. The Culture medium was replaced on the 3 DIV with L-15 serum free medium, followed by half medium change every 2˜3 days. Experiments were carried out on the 3-5 DIV.
The primary cultured spinal motor neurons at 5 DIV were divided into four groups: control group, glutamate group, MK801+glutamate group, and YC-6+glutamate group. The control group received no treatment. The glutamate group was treated with […] glutamate. The MK801 group and the YC-6 group were pre-treated with MK801 (10 μM) and YC-6 with different concentrations, respectively, followed by incubation at 37° C. for 30 minutes, then glutamate was added. After 24 hours, phase contrast microscope was used to observe neuronal morphologies. […] The activity of lactate dehydrogenase (LDH) was also determined for each group. […]

[3] = test system: cortical neurons; experiment: Glutamate-induced excitotoxicity of cortical neurons; conditions: 200 μM glutamate, 24 hours
Protocol: (§2) Cortex with meninges and blood vessels removed were obtained from newborn (1-day old) rats. 0.05 g/L DNase I was used to pipette the cell to single cell suspension following 0.25 g/L trypsin digestion. The suspension was then centrifuged to collect precipitation and diluted it with DMEM-F12 medium containing 5% (v/v) FBS and 2% B27. The cell was seeded on dishes pre-coated with poly-lysine. 24 hours following the seeding, 10 μM Ara-C was added to inhibit growth and proliferation of non-neuron cells. Half medium change was performed 2-3 times per week. Experiments were carried out on the 10 DIV.
as §1, with “primary cultured cortical” for “cerebellar granule”, “at 10 DIV” for “cultured for 8 days”, “nM)” for “μM)”

[4] = test system: cortical neurons; experiment: Hypoxia-induced damage of cortical neurons; conditions: hypoxia 1% oxygen, 12 hours; pretreated 30 min, MK801 10 μM, YC-6 different concentrations; compared with the control group
Protocol: as §2
The primary cultured cortical neurons at 10 DIV were divided into four groups: control group, hypoxia group, MK801+ hypoxia group, and YC-6+ hypoxia group. 3 duplicates wells were provided for each group. The control group was incubated in CO2 normoxic incubator. […]
The treatment was performed in 96-well plates. […] The crystals were dissolved after half an hour and OD value was detected at 570 nm wavelength by Microplates-Reader. 50 μL of culture medium was obtained from all groups at different time points and LDH release was determined for each well according to the supplier's instructions. Data were presented as the mean±SD, one-way ANOVA and statistically analyzed using paired-samples t-test and analysis of variance among means of multiple samples. […]

For `C[C@]12N[C@H](Cc3ccccc31)c1ccccc12` [MK801], the “survival rate of neurons” value ([1]; FDA staining, pre-treated 30 minutes, MK801 10 μM, YC-6 different concentrations, vs glutamate group) was “increased survival rate”, the “neuronal morphology (phase contrast microscope)” value ([1]; majority of neurons) was “maintain the integrity of soma and processes” and the LDH release ([1]; pre-treated 30 minutes, MK801 10 μM, YC-6 different concentrations, vs glutamate group) was “decreased LDH release”. The “number of spinal motor neurons (phase contrast microscope)” value [2] was “significantly increased”, the “survival rate of neurons” value ([3]; FDA staining, pre-treated 30 minutes, MK801 10 nM, YC-6 different concentrations, vs glutamate group) was “increased survival rates” and the “neuronal morphology (phase contrast microscope)” value ([3]; a great number of neurons) was “maintained intact soma and neurites”. For the same compound, the LDH release ([3]; pre-treated 30 minutes, MK801 10 nM, YC-6 different concentrations, vs glutamate group) was “decreased LDH release” and the “morphology of cortical neuronal cells” value [4] was “no difference in morphology”.
